Activity calls are given as the source filed them. No cut-off for these calls is given here.
Tests used:
[1] = target: T1, Heat shock protein HSP 90-beta (Homo sapiens, UniProt P08238); experiment: Inhibition of Hsp90 in human A431 cells assessed as increase in Hsp70 protein expression at 0.075 to 1.2 uM after 24 hrs by Western blot analysis; type: cell-based; details: A-431
A-431 = experiment: Antitumor activity against human A431 cells xenografted in CD1 Harlan mouse assessed as tumor volume inhibition at 60 mg/kg, ip qd administered for 5 days; type: functional; details: A-431, ip, 120 h, route intraperitoneal
Mus musculus [2] = experiment: Toxicity in human A431 cells xenografted CD1 Harlan mouse assessed as body weight loss at 60 mg/kg, ip qd administered for 5 days; type: organism-based, A-431; set-up: dose 60 mg/kg, route intraperitoneal; details: in vivo, 120 h
[3] = target: T1, Heat shock protein HSP 90-beta; experiment: Inhibition of Hsp90 in human A431 cells assessed as reduction in Akt protein expression after 24 hrs by Western blot analysis; type: cell-based; details: A-431
[4] = Toxicity in human A431 cells xenografted ip dosed CD1 Harlan mouse; type: organism-based, A-431; details: in vivo
[5] = target: T1, Heat shock protein HSP 90-beta; experiment: Inhibition of Hsp90 in human A431 cells assessed as reduction in CDK4 protein expression after 24 hrs by Western blot analysis; type: cell-based; details: A-431
[6] = target: T1, Heat shock protein HSP 90-beta; experiment: Binding affinity to Hsp90 after 4 hrs by fluorescence polarization assay
[7] = target: T1, Heat shock protein HSP 90-beta; experiment: Inhibition of Hsp90 in human A431 cells assessed as reduction in EGFR protein expression after 24 hrs by Western blot analysis; type: cell-based; details: A-431
NCI-H460 = experiment: Cytotoxicity against human NCI-H460 after 72 hrs by sulforhodamine B assay; type: functional, cell-based; details: NCI-H460, 72 h
[8] = target: T1, Heat shock protein HSP 90-beta; experiment: Inhibition of Hsp90 in human A431 cells assessed as increase in Hsp70 protein expression at 0.011 to 0.9 uM after 24 hrs by Western blot analysis; type: cell-based; details: A-431
[9] = target: T1, Heat shock protein HSP 90-beta; experiment: Inhibition of Hsp90 in human A431 cells assessed as increase in Hsp70 protein expression at 0.0031 to 0.8 uM after 24 hrs by Western blot analysis; type: cell-based; details: A-431
[10] = target: T1, Heat shock protein HSP 90-beta; experiment: Inhibition of Hsp90 in human A431 cells assessed as increase in Hsp70 protein expression at 0.00493 to 1.2 uM after 24 hrs by Western blot analysis; type: cell-based; details: A-431
[11] = target: T1, Heat shock protein HSP 90-beta; experiment: Inhibition of Hsp90 in human A431 cells assessed as increase in Hsp70 protein expression at 0.01 to 0.814 uM after 24 hrs by Western blot analysis; type: cell-based; details: A-431
Mus musculus [12] = experiment: Increase of Hsp70 expression in human A431 cells xenografted in CD1 Harlan mouse at 60 mg/kg, ip qd administered for 5 days measured 2 hrs post-last dose by Western blot analysis; type: functional, organism-based; set-up: dose 60 mg/kg; details: A-431
Mus musculus [13] = experiment: Degradation of Akt in human A431 cells xenografted in CD1 Harlan mouse at 60 mg/kg, ip qd administered for 5 days measured 2 hrs post-last dose by Western blot analysis; type: functional, organism-based; set-up: dose 60 mg/kg; details: A-431
Mus musculus [14] = experiment: Degradation of EGFR in human A431 cells xenografted in CD1 Harlan mouse at 60 mg/kg, ip qd administered for 5 days measured 2 hrs post-last dose by Western blot analysis; type: functional, organism-based; set-up: dose 60 mg/kg; details: A-431
Mus musculus [15] = experiment: Degradation of CDK4 in human A431 cells xenografted in CD1 Harlan mouse at 60 mg/kg, ip qd administered for 5 days measured 2 hrs post-last dose by Western blot analysis; type: functional, organism-based; set-up: dose 60 mg/kg; details: A-431
[16] = target: T1, Heat shock protein HSP 90-beta; experiment: Inhibition of Hsp90 in human A431 cells assessed as increase in Hsp70 protein expression at 0.11 to 0.8 uM after 24 hrs by Western blot analysis; type: cell-based; details: A-431

T1 sequence (P08238 whole entry): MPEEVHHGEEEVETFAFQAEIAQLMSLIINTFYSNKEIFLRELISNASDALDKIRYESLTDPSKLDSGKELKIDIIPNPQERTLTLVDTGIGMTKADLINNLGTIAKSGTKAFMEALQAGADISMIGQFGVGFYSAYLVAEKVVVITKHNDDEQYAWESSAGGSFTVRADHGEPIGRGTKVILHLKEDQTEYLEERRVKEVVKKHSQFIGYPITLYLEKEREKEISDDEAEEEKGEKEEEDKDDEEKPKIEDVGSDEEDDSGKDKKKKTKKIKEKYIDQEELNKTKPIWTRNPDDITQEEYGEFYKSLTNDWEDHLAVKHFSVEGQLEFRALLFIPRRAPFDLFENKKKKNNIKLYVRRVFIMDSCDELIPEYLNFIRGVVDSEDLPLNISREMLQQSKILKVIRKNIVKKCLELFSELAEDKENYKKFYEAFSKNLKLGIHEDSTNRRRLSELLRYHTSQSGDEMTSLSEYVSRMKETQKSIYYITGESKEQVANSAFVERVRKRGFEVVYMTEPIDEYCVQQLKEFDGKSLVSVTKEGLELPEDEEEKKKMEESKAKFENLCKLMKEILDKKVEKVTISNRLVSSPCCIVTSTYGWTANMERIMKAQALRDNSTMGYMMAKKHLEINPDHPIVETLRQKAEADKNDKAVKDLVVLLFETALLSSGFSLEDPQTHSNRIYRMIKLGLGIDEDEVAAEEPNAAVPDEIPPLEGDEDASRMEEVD

Row | SMILES | inhibition [3] | inhibition [5] | IC50 [6] | inhibition [7] | inhibition [8] | inhibition [9] | inhibition [10] | inhibition [11] | inhibition [16] | inhibition [1] | inhibition in vivo at 60 mg/kg (A-431) | Activity (Mus musculus [2]) | MTD [4] | IC50 (NCI-H460) | Activity (Mus musculus [12]) | Activity (Mus musculus [13]) | Activity (Mus musculus [14]) | Activity (Mus musculus [15])
1 | CCNC(=O)c1noc(-c2cc(C(C)C)c(O)cc2O)c1NC(=O)c1ccc(CN2CCOCC2)cc1 | Dose-dependent effect | Dose-dependent effect | 71 nM | Dose-dependent effect |  |  |  |  |  | Active | 33% | 2% | 60 mg/kg | 95 nM |  |  |  | 
2 | CCNC(=O)c1noc(-c2cc(C(C)C)c(O)cc2O)c1NC(=O)C1CCCCC1 | Dose-dependent effect | Dose-dependent effect | 190 nM | Dose-dependent effect |  |  | Active |  |  |  |  |  |  | 16 nM |  |  |  | 
3 | CCNC(=O)c1noc(-c2cc(C(C)C)c(O)cc2O)c1NC(=O)c1cc(CN2CCOCC2)on1 |  |  | 40 nM |  |  |  |  |  |  |  | 48% | 7% | 60 mg/kg | 200 nM | Active | Active | Active | Active
4 | CCNC(=O)c1noc(-c2cc(C(C)C)c(O)cc2O)c1NC(=O)c1sccc1C | Dose-dependent effect | Dose-dependent effect | 84 nM | Dose-dependent effect |  |  |  |  | Active |  |  |  |  | 17 nM |  |  |  | 

The next lines start with results.

Row | inhibition [3] | inhibition [5] | IC50 [6] | inhibition [7] | inhibition [8] | inhibition [9] | inhibition [10] | inhibition [11] | inhibition [16] | SMILES | inhibition [1] | inhibition in vivo at 60 mg/kg (A-431) | Activity (Mus musculus [2]) | MTD [4] | IC50 (NCI-H460) | Activity (Mus musculus [12]) | Activity (Mus musculus [13]) | Activity (Mus musculus [14]) | Activity (Mus musculus [15])
5 | Dose-dependent effect | Dose-dependent effect | 24 nM | Dose-dependent effect | Active |  |  |  |  | CCNC(=O)c1noc(-c2cc(C(C)C)c(O)cc2O)c1NC(=O)[C@H]1CC[C@@H](OC)CC1 |  |  |  |  | 13 nM |  |  |  | 
6 | Dose-dependent effect | Dose-dependent effect | 41 nM | Dose-dependent effect |  | Active |  |  |  | CCNC(=O)c1noc(-c2cc(C(C)C)c(O)cc2O)c1NC(=O)C(C)(C)C |  |  |  |  | 24 nM |  |  |  | 
7 | Dose-dependent effect | Dose-dependent effect | 20 nM | Dose-dependent effect |  |  |  | Active |  | CCNC(=O)c1noc(-c2cc(C(C)C)c(O)cc2O)c1NC(=O)c1cc(CC)on1 |  |  |  |  | 22 nM |  |  |  | 

Reference: ChEMBL document CHEMBL1938264, “Novel 3,4-isoxazolediamides as potent inhibitors of chaperone heat shock protein 90” (J Med Chem, 2011)
